In series [1] the target is T1, PRMT5/MEP50-MTA protein complex (Homo sapiens, UniProt O14744).
T1 construct: purchased Viva Biotech
Briefly: Thermal shift assay: thermal stability (melting temperature) of PRMT5/MEP50-MTA protein complex. To be noted: final compound concentration 8 µM; 2 µM PRMT5/MEP50, 2 µM MTA; Tm minus Tm of DMSO vehicle control. The class given is binding. From the text: Test Example 1: Determination of the ability of the compounds of the present invention to improve the thermal stability (melting temperature) of the PRMT5/MEP50-MTA protein complex.
1 Experimental objective: The objective of this test example is to determine the ability of the compound to improve the thermal stability of the PRMT5/MEP50-MTA protein complex, resulting in an increase in the protein melting temperature. 2 Experimental instruments: Quantitative PCR instrument (Quantstudio6 Flex) was purchased from Life Technologies; pipettes were purchased from Eppendorf or Rainin. 3 Experimental reagents and consumables: PRMT5/MEP50 protein was prepared by Viva Biotech; HEPES was purchased from Thermo Fisher Scientific (Cat. No. 15630080); DTT was purchased from Sigma (Cat. No. 43816-10ml); sodium chloride was purchased from Invitrogen (Cat. No. AM9760G); Protein Thermal Shift™ Dye Kit was purchased from Thermo Fisher Scientific (Cat. No. 4461146); methylthioadenosine (MTA) was purchased from Sigma (Cat. No. D5011). 4 Experimental method: In this experiment, the thermal shift method was used to measure the change in the melting temperature (Tm) of the PRMT5/MEP50-MTA protein complex before and after compound binding, thereby characterising the ability of the compound to improve the thermal stability of the PRMT5/MEP50-MTA protein complex. A solution containing 50 mM HEPES, 10 mM DTT, 2 µM MTA, SYPRO Orange and 250 mM NaCl was prepared as the experimental buffer. Human PRMT5/MEP50 protein was added to a final concentration of 2 µM, and the mixture was incubated at room temperature for 30 minutes. The above reaction mixture was aliquoted into 8-strip PCR tubes at 19.5 µL per tube. Then 0.5 µL of test compound or DMSO was added to each tube, providing a total reaction volume of 20 µL and a final compound concentration of 8 µM. 2.5% DMSO was set as the vehicle control. After incubation at room temperature for 10 minutes, the PCR tubes were placed in a PCR instrument, and the melt curve function was selected to measure the melting temperature of the PRMT5/MEP50-MTA protein complex in different treatment groups (heated from 25°C to 95°C, 0.03°C/s). 5 Experimental data processing method: The experimental data files from the PCR instrument were imported into the thermal shift software to obtain the melting temperature (Tm) for each treatment group.

Series [2] relates to HCT116 wild-type cells. Briefly: Cell proliferation inhibition (CellTiter-Glo), HCT116 wild-type cells. The class given is cell-based. The following applies: Homo sapiens, HCT-116, read-out: HCT116 IC50. From the text: (§1) Test Example 2: Determination of the inhibitory effect of the compounds of the present invention on the proliferation activity of HCT116 and MTAP Knockout HCT116 cells.
(§2) 1 Experimental objective: The objective of this test example is to determine the inhibitory effect of the compound on the proliferation activity of HCT116 wild-type and HCT116 MTAP knockout cells. 2 Experimental instruments: Centrifuge (Eppendorf 5810R); microplate reader (BioTek Synergy H1 or PerkinElmer Envision); pipette (Eppendorf or Rainin). 3 Experimental reagents: HCT116 and MTAP Knockout HCT116 cells were purchased from Nanjing Cobioer; Cell Titer-Glo was purchased from Promega (Cat. No. G7573); McCoy'5A was purchased from Gibco (Cat. No. 12330031); FBS was purchased from Gibco (Cat. No. 10091148); PBS was purchased from Gibco (Cat. No. 10010023); trypsin was purchased from Gibco (Cat. No. 25200056); cell culture plates were purchased from Corning (Cat. No. 3610). 4 Experimental method: HCT116 and MTAP Knockout HCT116 cells were cultured in McCoy'5A medium containing 10% FBS until an appropriate cell density was reached. The cells were then collected and adjusted to a suitable concentration using complete medium. The cell suspension was seeded into a 96-well plate at 90 µL per well and allowed to adhere overnight in a 37°C, 5% CO2 incubator. Compound solutions of various concentrations were prepared using DMSO and culture medium, with a vehicle control set. The compound solutions were added to the 96-well plate at 10 µL per well, and the plate was incubated in a 37°C, 5% CO2 incubator for an additional 72-240 hours. After incubation, CellTiter-Glo solution was added, and the mixture was mixed uniformly by shaking, followed by incubation in the dark for 10 to 30 minutes. Luminescence was measured using a Synergy H1 or Envision microplate reader. 5 Experimental data processing method: The inhibition rate was calculated using the luminescence signal values, and the concentrations along with the inhibition rates were subjected to non-linear regression curve fitting using Graphpad Prism software to obtain the IC50 values.
In general terms: Cellular ATP, detected with luciferase, serves as a proxy for viable cell number.

Series [3] concerns MTAP Knockout HCT116 cells. Briefly: Cell proliferation inhibition (CellTiter-Glo), HCT116 MTAP knockout cells. The class given is cell-based. To be noted: for Selectivity: HCT116 IC50 versus MTAP Knockout HCT116 IC50; for IC50: Homo sapiens, HCT-116, read-out: MTAP Knockout HCT116 IC50.
Text: as §1, §2

A short description of series [4]: Pharmacokinetics in rats (plasma) after oral administration. It is filed as in vivo. The following applies: rat, po, SD rats, p.o. 5 mg/kg; for Cmax: read-out: Cmax; for MRT inf: read-out: MRT0-∞; for Tmax: read-out: tmax.
Experimental: Test Example 4: Determination of the pharmacokinetics of the compounds of the present invention in rats (plasma) after oral administration.
1 Study objective: SD rats were used as test animals to study the pharmacokinetic behaviour of the following example compounds in rats (plasma) after oral administration at a dose of 5 mg/kg. 2 Test scheme • 2.1 Test drugs: Vehicle formula: 0.5% CMC-Na (1% Tween 80); the examples of the present invention, made in house. • 2.2 Test animals: 3 SD rats per group, male, purchased from Shanghai Bikai Keyi Biotechnology Co., Ltd., with animal license number (SCXK (Shanghai) 2018-0006, No.20180006037467). • 2.3 Administration: 3 SD rats per group, male, were fasted overnight and then respectively administered PO at a dose of 5 mg/kg and a volume of 10 mL/kg. • 2.4 Sample collection: 0.2 mL of blood was collected from the jugular vein of rats before administration and at 0, 0.25, 0.5, 1, 2, 4, 6, 8 and 24 h after administration, and placed in EDTA-K2test tubes, and the test tubes were centrifuged at 6,000 rpm at 4°C for 6 min to separate the plasma, which was stored at -80°C. The animals were fed 4 h after administration. • 2.5 Sample treatment • 1) 160 uL of acetonitrile was added to 40 uL of plasma sample for precipitation, and after mixing, the mixture was centrifuged at 3,500 × g for 5-20 minutes. • 2) 100 uL of the treated supernatant solution was taken for LC/MS/MS analysis to determine the concentration of the test compounds. • 2.6 Liquid phase analysis • Liquid phase conditions: Shimadzu LC-20AD pump;mass spectrometry conditions: AB Sciex API 4000 mass spectrometer • Chromatographic column: Phenomenex Gemiu 5 um C18 50 × 4.6 mm • Mobile phase: solution A: 0.1% formic acid in water, solution B: methanol • Flow rate: 1.0 mL/min, elution time: 0-4.0 min, with eluents as follows:
Experimental results and analysis: The main pharmacokinetic parameters were calculated using WinNonlin 8.2.

Where two headings read alike, the source gives them in different places.

T1 sequence (O14744 whole entry): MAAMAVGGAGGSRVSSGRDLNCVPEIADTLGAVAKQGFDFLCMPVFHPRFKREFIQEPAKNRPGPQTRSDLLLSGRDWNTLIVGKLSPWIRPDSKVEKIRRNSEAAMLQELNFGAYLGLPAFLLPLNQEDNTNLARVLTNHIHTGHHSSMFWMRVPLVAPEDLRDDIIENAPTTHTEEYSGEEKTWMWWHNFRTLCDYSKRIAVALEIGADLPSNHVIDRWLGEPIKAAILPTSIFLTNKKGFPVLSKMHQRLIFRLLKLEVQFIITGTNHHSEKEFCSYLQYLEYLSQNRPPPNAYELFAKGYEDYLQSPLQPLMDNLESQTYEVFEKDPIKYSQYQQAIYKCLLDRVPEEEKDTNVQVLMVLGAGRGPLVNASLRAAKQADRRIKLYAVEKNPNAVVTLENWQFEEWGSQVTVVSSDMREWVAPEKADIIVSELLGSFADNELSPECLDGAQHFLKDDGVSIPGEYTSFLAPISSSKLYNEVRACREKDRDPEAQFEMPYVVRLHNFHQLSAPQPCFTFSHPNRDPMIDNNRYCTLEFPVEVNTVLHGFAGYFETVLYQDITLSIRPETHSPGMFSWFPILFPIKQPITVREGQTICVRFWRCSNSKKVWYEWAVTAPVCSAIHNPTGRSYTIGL
T1 sequence (Q9BQA1 whole entry partner): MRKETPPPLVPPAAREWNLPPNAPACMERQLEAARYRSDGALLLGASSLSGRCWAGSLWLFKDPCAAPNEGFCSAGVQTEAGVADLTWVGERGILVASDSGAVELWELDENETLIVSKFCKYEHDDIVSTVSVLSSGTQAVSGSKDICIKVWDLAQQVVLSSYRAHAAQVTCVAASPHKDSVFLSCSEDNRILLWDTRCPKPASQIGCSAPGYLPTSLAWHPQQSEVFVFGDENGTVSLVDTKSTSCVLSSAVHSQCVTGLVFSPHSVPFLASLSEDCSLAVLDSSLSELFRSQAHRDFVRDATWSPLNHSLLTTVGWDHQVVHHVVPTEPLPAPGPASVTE

On to `Nc1nc2cc3c(cc2n2cncc12)C(=O)N(C1COCc2nc(C(F)(F)F)ccc21)CC/C=C\3` (racemic) [Example 311], for which the shift in melting temperature (ΔTm) at 8 µM in series [1] turned out to be 11.1 °C. The 50% inhibitory concentration (IC50) in series [2] came out at 1740 nM; in series [3], 23 nM. In addition, the Selectivity in series [3] came to 77.

Consider `CC(c1ccc(C(F)(F)F)cn1)N1CCC/C=C\c2cc3nc(N)c4cncn4c3cc2C1=O` (racemic) [Example 352, (Z)-4-Amino-12-(1-(5-(trifluoromethyl)pyridin-2-yl)ethyl)-9,10,11,12-tetrahydro-13H-azo[4,3-g]imidazo[1,5-a]quinoxalin-13-one], for which the ΔTm at 8 µM in series [1] was determined as 11 °C.

`CC1OCc2c1c(N)nc1cc3c(cc21)C(=O)N(Cc1ccc(S(F)(F)(F)(F)F)cn1)CCCOC3` (racemic) [Example 437, 4-Amino-3-methyl-12-((5-(pentafluorosulphanyl)pyridin-2-yl)methyl)-3,7,9,10,11,12-hexahydrofuro[3,4-c][1,5]oxazolo[7,8-g]quinolin-13(1H)-one]: the ΔTm at 8 µM in series [1] amounted to 12.2 °C. Besides, the 50% inhibitory concentration (IC50) in series [2] was 191 nM. For the same molecule, in series [3], the Selectivity is 64 and the IC50 worked out at 3 nM.

Regarding `Nc1nc2cc3c(cc2n2cncc12)C(=O)N(C1COCc2nc(C(F)(F)F)ccc21)CCCC/C=C\3` (single isomer, unassigned) [Example 62-P1], the ΔTm at 8 µM in series [1] came to 10.8 °C. Besides, in series [4] (male), the AUC(0-inf) came to 800 ng·h/mL, the half-life was 2.2 h, the peak concentration (Cmax) came out at 201 ng/mL and the MRT inf amounted to 3.8 h. The Tmax in series [4] (male) worked out at 1 h.

As to `Nc1nc2cc3c(cc2n2cncc12)C(=O)N([C@@H]1COCc2nc(C(F)(F)F)ccc21)CC/C=C\3` (single isomer, unassigned) [Example 311-P1], the shift in melting temperature (ΔTm) at 8 µM in series [1] came out at 10.9 °C. Besides, in series [4] (in vivo), the AUC(0-inf) amounted to 1780 ng·h/mL, the half-life was 1.8 h, the Cmax amounted to 330 ng/mL and the MRT inf was 3.7 h. In series [4] (in vivo), the Tmax was 2.3 h.

Take `C[C@@H]1CCN([C@@H]2COCc3nc(C(F)(F)F)ccc32)C(=O)c2cc3c(cc2CO1)nc(N)c1cncn13` [Example 15-P1, (R)-4-amino-9-methyl-12-((S)-2-(trifluoromethyl)-5,8-dihydro-6H-pyrano[3,4-b]pyridin-5-yl)-9,10,11,12-tetrahydroimidazo[1,5-a][1,5]oxazolo[8,7-g]quinoxalin-13(7H)-one and (S)-4-amino-9-methyl-12-((R)-2-(trifluoromethyl)-5,8-dihydro-6H-pyrano[3,4-b]pyridin-5-yl)-9,10,11,12-tetrahydroimidazo[1,5-a][1,5]oxazolo[8,7-g]quinoxalin-13(7H)-one]: the thermal shift (ΔTm) at 8 µM in series [1] came to 10.1 °C.

With `Nc1nc2cc3c(cc2n2cncc12)C(=O)N(C1COCc2nc(C(F)(F)F)ccc21)CCCCOC3` (stereo not drawn) [Example 48, 4-Amino-13-(2-(trifluoromethyl)-5,8-dihydro-6H-pyrano[3,4-b]pyridin-5-yl)-10,11,12,13-tetrahydro-7H-imidazo [1,5-a] [1,6] oxazino [3,4-g] quinoxalin-14(9H)-one], the ΔTm at 8 µM in series [1] is 10.9 °C.

Take `Nc1nc2cc3c(cc2n2cncc12)C(=O)N(C1COCc2nc(C(F)(F)F)ccc21)CCC/C=C\3` (stereo not drawn) [Example 158, (Z)-4-Amino-12-(2-(trifluoromethyl)-5,8-dihydro-6H-pyrano[3,4-b]pyridin-5-yl)-9,10,11,12-tetrahydro-13H-azonino[4,3-g]imidazo[1,5-a]quinoxalin-13-one]: in series [1], the shift in melting temperature (ΔTm) at 8 µM was determined as 11.3 °C. Also, in series [4] (male), the AUC(0-inf) was 712 ng·h/mL, the half-life is 1.3 h, the highest concentration (Cmax) amounted to 287 ng/mL and the MRT inf is 2 h. Also, the Tmax in series [4] (male) was 0.5 h.

For `Nc1nc2cc3c(cc2n2cncc12)C(=O)N(C1COCc2nc(C(F)(F)F)ccc21)CCCCC3` (stereo not drawn) [Example 159, 4-Amino-12-(2-(trifluoromethyl)-5,8-dihydro-6H-pyrano[3,4-b]pyridin-5-yl)-7,8,9,10,11,12-hexahydro-13H-azonino[4,3-g]imidazo[1,5-a]quinoxalin-13-one], the shift in melting temperature (ΔTm) at 8 µM in series [1] worked out at 10.5 °C.

`Nc1nc2cc3c(cc2n2cncc12)C(=O)N(C1COCc2cc(C(F)(F)F)ccc21)CCC/C=C\3` (stereo not drawn) [Example 167, (Z)-4-Amino-12-(7-trifluoromethylisochroman-4-yl)-9,10,11,12-tetrahydro-13H-azonino[4,3-g]imidazo[1,5-a]quinoxalin-13-one]: the thermal shift (ΔTm) at 8 µM in series [1] amounted to 12.3 °C.

For the molecule `Nc1nc2cc3c(cc2n2cncc12)C(=O)N(Cc1ccc(C(F)(F)F)nn1)CCC/C=C\3` [Example 391, (Z)-4-Amino-12-(6-(trifluoromethyl)pyridazin-3-yl)methyl-9,10,11,12-tetrahydro-13H-azonino[4,3-g]imidazo[1,5-a]quinoxalin-13-one], the shift in melting temperature (ΔTm) at 8 µM in series [1] worked out at 10.9 °C.

As for `CC(c1ccc(C(F)(F)F)nc1)N1CCC/C=C\c2cc3nc(N)c4cncn4c3cc2C1=O` (stereo not drawn) [Example 415, (Z)-4-Amino-12-(1-(6-(trifluoromethyl)pyridin-3-yl)ethyl)-9,10,11,12-tetrahydro-13H-azo[4,3-g]imidazo[1,5-a]quinoxalin-13-one], the ΔTm at 8 µM in series [1] was 10.3 °C.

In the case of `CN1CCCN(Cc2ccc(C(F)(F)F)cn2)C(=O)c2cc3c(cc2C1)nc(N)c1cnn(C)c13` [Example 502, 4-Amino-1,8-dimethyl-12-((5-(trifluoromethyl)pyridin-2-yl)methyl)-7,8,9,10,11,12-hexahydro-[1,5]diazonino[7,8-g]pyrazolo[4,3-c]quinolin-13(1H)-one], the thermal shift (ΔTm) at 8 µM in series [1] was 10.6 °C.

For `C[C@@H]1CCCN(Cc2ccc(C(F)(F)F)cn2)C(=O)c2cc3c(cc2C1)nc(N)c1cncn13` [Example 514-P1, (R)-4-amino-8-methyl-12-((5-(trifluoromethyl)pyridin-2-yl)methyl)-7,8,9,10,11,12-hexahydro-13H-azo[4,3-g]imidazo[1,5-a]quinoxalin-13-one], in series [1], the shift in melting temperature (ΔTm) at 8 µM is 11.3 °C.

For `Cc1nc(CN2CC/C=C\c3cc4nc(N)c5cncn5c4cc3C2=O)ccc1C(F)(F)F` [Example 688, (Z)-4-Amino-11-((6-methyl-5-(trifluoromethyl)pyridin-2-yl)methyl)-10,11-dihydroazo[4,3-g]imidazo[1,5-a]quinoxalin-12(9H)-one], the ΔTm at 8 µM in series [1] was determined as 11.6 °C.

By ΔTm is commonly meant the change in melting temperature against a reference sample. As a reminder, the IC50 is the concentration at which inhibition is half-maximal. The AUC(0-inf) is total exposure, with the tail of the curve extrapolated. High values mean more exposure, low ones less exposure. For orientation: half-life means the time in which the quantity being followed falls by half. Read a low half-life as fast loss. What is called Cmax is the maximum level reached in the sampled fluid or tissue. The term Tmax denotes the time from dosing to the highest level.
